The test system of the test is Trap1 KO MIO-M1 cells. Nature of the test: TRAP1 inhibitor effects in Trap1 KO MIO‐M1 cells. The test is classed as cell-based, human. As to the method:
MIO‐M1 Trap1 KO cell lines were generated using CRISPR/Cas9‐derived RNA‐guided endonucleases (Toolgen; Seoul, Republic of Korea). MIO‐M1 cells were co‐transfected with the Cas9 vector and TRAP1‐sgRNA expression vector (sgRNA sequence 1; 5′‐[…]‐3′ and sequence 2; 5′‐[…]‐3′) using jetPRIME transfection reagent (Polyplus; Illkirch‐Graffenstaden, France). Transfected cells were selected in culture medium containing […] puromycin (Sigma). Single‐cell colonies were collected using a cloning cylinder (I.D. × H 6.4 mm × 8 mm; Sigma) and analyzed using T7 endonuclease I to confirm Trap1 KO.
Supplementary Figure 16. Calpain-1 autolysis and HIF1α degradation in Trap1 […]
A) HIF1α degradation and calpain-1 autolysis in Trap1 knockout (KO) MIO-M1 cells. Trap1 KO MIO-M1 cells were generated as described in the Experimental Section and incubated in hypoxia for 6 hr, followed by analysis using western blotting. Under hypoxia, HIF1α degradation and autoproteolysis of calpain-1 were found in Trap1 KO MIO-M1 cells, when compared with wild type (WT) cells. […]
cell lines were established using MIO-M1 cells. WT and KO cells were incubated with MitoQ for 6 hr under hypoxia and analyzed by western blotting. Trap1 KO reduced the expression of […]
Quantification of the HIF1α protein level. HIF1α western blot density was analyzed and compared. Data are expressed as mean ± SEM from four independent experiments.
C) Cytoplasmic calcium concentration. WT and Trap1-KO MIO-M1 cells were labeled with […]
Fluo-4 AM, incubated with 3 μM gamitrinib or 1 μM MitoQ for 6 hr under hypoxia, collected, and analyzed by flow cytometry. Data information: Data are expressed as mean ± SEM.
Student t-test, ***P < 0.001; ns, not significant. […]

The values below come from PMC10787068, “Targeting the Mitochondrial Chaperone TRAP1 Alleviates Vascular Pathologies in Ischemic Retinopathy” (Advanced Science, 2023).

SMILES strings stand for the structures. Entries after “also recorded” stand apart in the source; their conditions may differ.

Consider `COC1=C(OC)C(=O)C(CCCCCCCCCC[P+](c2ccccc2)(c2ccccc2)c2ccccc2)=C(C)C1=O` [MitoQ, mitoquinone], for which the “cytosolic calcium concentration in Trap1−/− cells” value (3 μM gamitrinib or 1 μM MitoQ, 6 hr under hypoxia, Fluo-4 AM flow cytometry) is “did not affect”. Also, the “HIF1α expression in Trap1−/− cells” value (6 hr under hypoxia, western blotting) is listed as “not further affected; also recorded: did not affect”. For the setting “hypoxia”, the “calpain‐1 activation in Trap1−/− cells” value was “did not affect”.
